Test results as given in patent US20230348456A1, “QUINAZOLINONES, PHARMACEUTICAL COMPOSITIONS CONTAINING THE SAME, AND METHODS OF USING THE SAME” (Repare Therapeutics Inc., priority 2022, published 2023).

Each compound was assayed against recombinant human Myt1 (Homo sapiens (Human), UniProt Q99640) (assay: Myt1 enzymatic assay (ADP-Glo kinase assay)). Details: recombinant human Myt1 18 nM, ATP 10 μM.
Type: biochemical
Method: Detection of Myt1 kinase activity utilized a recombinant human Myt1 kinase assay measuring the hydrolysis of ATP using a commercially available ADP-Glo Assay (ADP-Glo™ Kinase Assay from Promega, 10 000 assays, #V9102). Briefly, 5 μL recombinant human Myt1 (full length PKMYT1 recombinant human protein expressed in insect cells from Thermo Fisher #A33387; ˜80% purity) was prepared in reaction buffer (70 mM HEPES, 3 mM MgCl2, 3 mM MnCl2, 50 μg/ml PEG 20000, 3 μM Na-orthovanadate, 1.2 mM DTT) and added to 384 well white polystyrene, flat bottom well, non-treated, microplate (Corning #3572). After this, 5 μL of compounds (diluted in reaction buffer to 0.5% DMSO) was added to the microplate and the plate was spun briefly and incubated at 22° C. for 15 minutes. Ultra-Pure Adenosine Triphosphate (ATP) solution (ADP-Glo kit from Promega) was diluted in reaction buffer and 5 μL was added to the microplate, spun down briefly and incubated for 60 minutes at 30° C. The final Myt1 enzyme concentration was 18 nM and the final ATP concentration was 10 μM. After the 60-minute incubation, 15 μL of ADP-Glo reagent was added and the plate was spun briefly and sealed and incubated in the dark for 40 minutes at 22° C. Following this, 30 μL of kinase detection reagent was added per well and the plate was spun briefly, sealed and incubated for 45-60 minutes at 22° C. in the dark. Luminescence was read using the Envision (250 ms integration). The IC50 and the % max inhibition were calculated for each inhibitor compound tested.

Chain of recombinant human Myt1 (Q99640 whole entry): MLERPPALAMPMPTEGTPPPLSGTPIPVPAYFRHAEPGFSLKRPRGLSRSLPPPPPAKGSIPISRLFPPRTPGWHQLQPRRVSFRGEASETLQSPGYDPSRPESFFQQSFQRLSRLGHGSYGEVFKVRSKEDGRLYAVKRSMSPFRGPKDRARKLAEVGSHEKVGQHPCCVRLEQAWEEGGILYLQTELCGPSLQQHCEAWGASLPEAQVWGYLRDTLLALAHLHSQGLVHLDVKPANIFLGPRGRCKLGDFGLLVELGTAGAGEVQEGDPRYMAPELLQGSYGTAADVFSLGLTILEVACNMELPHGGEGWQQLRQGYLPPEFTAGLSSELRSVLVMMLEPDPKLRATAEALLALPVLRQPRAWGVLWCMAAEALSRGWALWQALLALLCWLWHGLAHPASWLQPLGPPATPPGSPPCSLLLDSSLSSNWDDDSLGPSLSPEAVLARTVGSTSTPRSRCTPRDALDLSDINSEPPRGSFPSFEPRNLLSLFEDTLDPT

Compound	IC50 [nM]
Cc1ccc2[nH]ncc2c1-c1cc(-c2nccs2)c2nc[nH]c(=O)c2c1N [Compound 98]	5
Cc1ccc2[nH]ncc2c1-c1cc(-c2cccc(F)n2)c2nc[nH]c(=O)c2c1N [Compound 99]	17
Nc1c(-c2cccc3[nH]ncc23)cc(-c2cnn(C3COC3)c2)c2nc(-c3cccnc3)[nH]c(=O)c12 [Compound 100]	5
Cc1ccc2[nH]ncc2c1-c1cc(-c2cccc(OC[C@@H]3COCCO3)n2)c2nc[nH]c(=O)c2c1N [Compound 101]	11
Cc1ccc2[nH]ncc2c1-c1cc(-c2cccc(OCc3ncccn3)n2)c2nc[nH]c(=O)c2c1N [Compound 102]	10
COCCOc1ccc(-c2nc3c(Br)cc(-c4cccc5[nH]ncc45)c(N)c3c(=O)[nH]2)cn1 [Compound 103]	8
Cc1ccc(O)cc1-c1cc(C2=CCOCC2)c2c(c1N)C(=O)NC2 [Compound 105]	641
Nc1c(-c2cccc3[nH]ncc23)cc(Br)c2nc[nH]c(=O)c12 [Compound 106]	24
N#Cc1csc(-c2cc(-c3cccc4[nH]ncc34)c(N)c3c(=O)[nH]cnc23)n1 [Compound 107]	3
Cc1ccc(O)cc1-c1cc(-c2ncccn2)c2c(c1N)C(=O)NC2 [Compound 108]	73
Nc1c(-c2cccc3[nH]ncc23)ccc2nc[nH]c(=O)c12 [Compound 109]	122
Cc1ccc2[nH]ncc2c1-c1cc(-c2cccc(OC3CCOCC3)n2)c2nc[nH]c(=O)c2c1N [Compound 110]	7
Nc1c(-c2cccc3[nH]ncc23)cc(-c2nccs2)c2nc(-c3cccnc3)[nH]c(=O)c12 [Compound 111]	4
Nc1c(-c2cccc3[nH]ncc23)cc(-c2nccs2)c2nc(CCc3cccnc3)[nH]c(=O)c12 [Compound 112]	34
Cc1ncccc1-c1nc2c(-c3nccs3)cc(-c3cccc4[nH]ncc34)c(N)c2c(=O)[nH]1 [Compound 113]	94
Nc1c(-c2cccc3[nH]ncc23)cc(-c2ncc(Cl)s2)c2nc[nH]c(=O)c12 [Compound 114]	28
Nc1c(-c2cccc3[nH]ncc23)cc(-c2ncc(C(F)(F)F)s2)c2nc[nH]c(=O)c12 [Compound 115]	109
Nc1c(-c2cccc3[nH]ncc23)cc(-c2nc(Cl)cs2)c2nc[nH]c(=O)c12 [Compound 116]	13
Nc1c(-c2cccc3[nH]ncc23)cc(-c2ccc(F)s2)c2nc[nH]c(=O)c12 [Compound 117]	15
N#Cc1ccc(-c2cc(-c3cccc4[nH]ncc34)c(N)c3c(=O)[nH]cnc23)s1 [Compound 118]	11
Nc1c(-c2cccc3[nH]ncc23)cc(-c2nc(C(F)(F)F)cs2)c2nc[nH]c(=O)c12 [Compound 119]	55
Nc1c(-c2cccc3[nH]ncc23)cc(-c2ncc(F)cn2)c2nc[nH]c(=O)c12 [Compound 120]	189

Compound	IC50 [nM]
Cc1ccc(-c2cc(-c3cccc4[nH]ncc34)c(N)c3c(=O)[nH]cnc23)s1 [Compound 121, 5-amino-6-(1H-indazol-4-yl)-8-(5-methylthiophen-2-yl)quinazolin-4(3H)-one]	62
Nc1c(-c2cccc3[nH]ncc23)cc(-c2ncccn2)c2nc[nH]c(=O)c12 [Compound 122]	170
Nc1c(-c2cccc3[nH]ncc23)cc(-c2ccc(Cl)s2)c2nc[nH]c(=O)c12 [Compound 123]	89
Nc1c(-c2cccc3[nH]ncc23)cc(-c2cc(F)cc(F)c2)c2nc[nH]c(=O)c12 [Compound 124]	66
Nc1c(-c2cccc3[nH]ncc23)cc(-c2ccc(C(F)(F)F)cc2)c2nc[nH]c(=O)c12 [Compound 125]	839
Nc1c(-c2cccc3[nH]ncc23)cc(-c2ccc(C(F)(F)F)s2)c2nc[nH]c(=O)c12 [Compound 126]	880
N#Cc1cnc(-c2cc(-c3cccc4[nH]ncc34)c(N)c3c(=O)[nH]cnc23)s1 [Compound 128]	5
Cn1ccc(-c2cc(-c3cccc4[nH]ncc34)c(N)c3c(=O)[nH]cnc23)n1 [Compound 129]	23
Nc1c(-c2cccc3[nH]ncc23)cc(-c2cnccn2)c2nc[nH]c(=O)c12 [Compound 130]	45
Nc1c(-c2cccc3[nH]ncc23)cc(-c2cccnn2)c2nc[nH]c(=O)c12 [Compound 131]	70
Nc1c(-c2cccc3[nH]ncc23)cc(-c2ccns2)c2nc[nH]c(=O)c12 [Compound 132]	4
Cc1ccc2[nH]ncc2c1-c1cc(Br)c2nc[nH]c(=O)c2c1N [Compound 133]	26
Cc1ccc(O)c(C)c1-c1cc(C2CC2)c2nc(-c3ccncc3)[nH]c(=O)c2c1N [Compound 134, 5-amino-8-cyclopropyl-6-(3-hydroxy-2,6-dimethyl-phenyl)-2-(4-pyridyl)-3H-quinazolin-4-one]	5
Cc1ccc(O)c(C)c1-c1cc(-c2ccn(C3CC3)n2)c2nc(-c3ccncc3)[nH]c(=O)c2c1N [Compound 135]	3
Cc1ccc(O)cc1-c1cc(-c2ccccn2)c2c(c1N)C(=O)NC2 [Compound 136]	548
Cc1ccc(O)cc1-c1cc(-c2ccccn2)c2nc[nH]c(=O)c2c1N [Compound 137]	51
Cc1ccc(O)cc1-c1cc(Br)c2nc[nH]c(=O)c2c1N [Compound 138]	41
Cc1ccc(O)c(C)c1-c1cc(-c2nccs2)c2c(c1N)C(=O)NC2 [Compound 139]	7
Cc1ccc(O)c(C)c1-c1cc(-c2ccc(F)cn2)c2c(c1N)C(=O)NC2 [Compound 140]	111
Cc1ccc(O)c(C)c1-c1cc(Br)c2c(c1N)C(=O)NC2 [Compound 141]	92
Cc1ccc(O)cc1-c1cc(-c2ncc(NC(=O)C3CC3)s2)c2c(c1N)C(=O)NC2 [Compound 142]	2240
Cc1ccc(O)cc1-c1cc(-c2ncc(CN3CCOCC3)s2)c2c(c1N)C(=O)NC2 [Compound 143]	1600

Compound	IC50 [nM]
Cc1ccc(O)cc1-c1cc(-c2nc(NC(=O)C3CCOCC3)cs2)c2c(c1N)C(=O)NC2 [Compound 144]	930
Cc1ccc(O)cc1-c1cc(-c2nc(C(=O)NCCO)cs2)c2c(c1N)C(=O)NC2 [Compound 145]	645
Cc1ccc(O)cc1-c1cc(-c2nc(CN3CCOCC3)cs2)c2c(c1N)C(=O)NC2 [Compound 146]	135
Cc1ccc(O)cc1-c1cc(-c2ncc(C(=O)NCCO)s2)c2c(c1N)C(=O)NC2 [Compound 147]	209
Cc1ccc(O)cc1-c1cc(-c2ncc(C(=O)O)s2)c2c(c1N)C(=O)NC2 [Compound 148]	1860
Cc1ccc(O)cc1-c1cc(-c2nc(C(F)(F)F)cs2)c2c(c1N)C(=O)NC2 [Compound 149]	682
CNC(=O)c1cnc(-c2cc(-c3cc(O)ccc3C)c(N)c3c2CNC3=O)s1 [Compound 150]	163
Cc1ccc(O)cc1-c1cc(-c2nc(C(=O)N(C)C)cs2)c2c(c1N)C(=O)NC2 [Compound 151]	61
Cc1ccc(O)cc1-c1cc(-c2ncc(C(=O)N3CCOCC3)s2)c2c(c1N)C(=O)NC2 [Compound 152]	683
Cc1ccc(O)cc1-c1cc(-c2ncc(C(=O)NC(C)C)s2)c2c(c1N)C(=O)NC2 [Compound 153]	477
Cc1ccc(O)cc1-c1cc(-c2ncc(C(=O)N(C)C)s2)c2c(c1N)C(=O)NC2 [Compound 154]	298
Cc1ccc(O)cc1-c1cc(-c2ncc(C#N)s2)c2c(c1N)C(=O)NC2 [Compound 155]	179
Cc1ccc(O)cc1-c1cc(-c2ncc(Cl)s2)c2c(c1N)C(=O)NC2 [Compound 156]	576
Cc1ccc(O)cc1-c1cc(-c2nc(C(=O)N3CCOCC3)cs2)c2c(c1N)C(=O)NC2 [Compound 157]	244
Cc1ccc(O)cc1-c1cc(-c2nc(C(=O)NC(C)C)cs2)c2c(c1N)C(=O)NC2 [Compound 158]	55
CNC(=O)c1csc(-c2cc(-c3cc(O)ccc3C)c(N)c3c2CNC3=O)n1 [Compound 159]	75
Cc1ccc(O)cc1-c1cc(-c2nc(C#N)cs2)c2c(c1N)C(=O)NC2 [Compound 160]	237
Cc1ccc(O)cc1-c1cc(-c2nc(Cl)cs2)c2c(c1N)C(=O)NC2 [Compound 161, 7-amino-4-(4-chlorothiazol-2-yl)-6-(5-hydroxy-2-methylphenyl)isoindolin-1-one]	253
Cc1ccc(O)cc1-c1cc(-c2nc(C(=O)O)cs2)c2c(c1N)C(=O)NC2 [Compound 162]	182
Cc1ccc(O)cc1-c1cc(-c2ccccc2)c2c(c1N)C(=O)NC2 [Compound 163, 7-amino-6-(5-hydroxy-2-methyl-phenyl)-4-phenyl-isoindolin-1-one]	1070
Cc1ccc(O)cc1-c1cc(-c2nccs2)c2cc[nH]c(=O)c2c1N [Compound 164, 8-amino-7-(5-hydroxy-2-methyl-phenyl)-5-thiazol-2-yl-2H-isoquinolin-1-one]	12
Nc1c(-c2cccc3[nH]ncc23)cc(-c2nccs2)c2nc(Oc3ccccc3)[nH]c(=O)c12 [Compound 165, 5-amino-6-(1H-indazol-4-yl)-2-phenoxy-8-(thiazol-2-yl)quinazolin-4(3H)-one]	596
